# Read-outs that look alike come from different tables or passages of the source.
# What was measured:
# Format in all cases: cell-based
# [1] = test system: E. faecalis ATCC 29212; test: MIC against E. faecalis ATCC 29212; conditions: Enterococcus faecalis
# [2] = test system: E. faecalis UNT-047 VRE; test: microbe, parasite or virus in culture; conditions: Enterococcus faecalis
# [3] = test system: S. aureus UNT-146, MP-620, TP 506 (ermA); test: microbe, parasite or virus in culture; conditions: Staphylococcus aureus
# [4] = test system: S. pneumoniae UNT-039, MP-627, TP1517 (mefA); test: MIC against S. pneumoniae UNT-039, MP-627, TP1517 (mefA); conditions: Streptococcus pneumoniae
# [5] = test system: S. pneumoniae ATCC 49619; test: MIC against S. pneumoniae ATCC 49619; conditions: Streptococcus pneumoniae, ATCC49619; S. pneumoniae ATCC 49619; read-out: MIC
# [6] = test system: E. coli ATCC 25922; test: MIC against E. coli ATCC 25922; conditions: Escherichia coli, ATCC25922
# [7] = test system: S. aureus UNT-120, MP-619, NR522 (USA 600, GISA); test: microbe, parasite or virus in culture; conditions: Staphylococcus aureus, USA600
# [8] = test system: P. aeruginosa ATCC 27853; test: MIC against P. aeruginosa ATCC 27853; conditions: Pseudomonas aeruginosa, ATCC27853
# [9] = test system: S. aureus MP-549 msr(a) USA 300; test: MIC against S. aureus MP-549 msr(a) USA 300; conditions: Staphylococcus aureus, USA300, S. aureus MP-549 msr(a) USA 300
# [10] = test system: K. pneumoniae ATCC 10031; test: MIC against K. pneumoniae ATCC 10031; conditions: Klebsiella pneumoniae, ATCC10031
# [11] = test system: S. aureus ATCC 29213; test: MIC against S. aureus ATCC 29213; conditions: Staphylococcus aureus
# [12] = test system: S. aureus BAA 977 iErmA; test: MIC against S. aureus BAA 977 iErmA; conditions: Staphylococcus aureus, BAA977
# [13] = test system: S. pyogenes UNT-014, MP-625 MacRes; test: MIC against S. pyogenes UNT-014, MP-625 MacRes; conditions: Streptococcus pyogenes
# [14] = test system: S. aureus MP-513 clinical cErm; test: MIC against S. aureus MP-513 clinical cErm; conditions: Staphylococcus aureus
# [15] = test system: E. coli MP-9 ΔTolC; test: MIC against E. coli MP-9 ΔTolC; conditions: Escherichia coli
# [16] = test system: S. aureus UNT96, NRS710, MP-618 (USA100, Erythro > 8); test: microbe, parasite or virus in culture; conditions: Staphylococcus aureus
# [17] = test system: K. pneumoniae UNT TEM-10; test: microbe, parasite or virus in culture; conditions: Klebsiella pneumoniae, UNTTEM10
# [18] = test system: S. pneumoniae UNT-038, MP-626, TP 160 (mefA); test: MIC against S. pneumoniae UNT-038, MP-626, TP 160 (mefA); conditions: Streptococcus pneumoniae
# [19] = test system: S. aureus BAA-1556 (USA 300); test: microbe, parasite or virus in culture; conditions: Staphylococcus aureus
# [20] = test system: E. coli GUEST131 (NDM-1); test: microbe, parasite or virus in culture; conditions: Escherichia coli
# [21] = test system: E. faecalis MMX 847 Macrolide-Resistant; test: MIC against E. faecalis MMX 847 Macrolide-Resistant; conditions: Enterococcus faecalis
# [22] = test system: B. fragilis ATCC 25285; test: MIC against B. fragilis ATCC 25285; conditions: Bacteroides fragilis, ATCC25285; B. fragilis ATCC 25285; read-out: MIC
# [23] = test system: E. coli ATCC 15922; test: MIC against E. coli ATCC 15922; conditions: Escherichia coli, ATCC15922
# [24] = test system: S. pyogenes MMX 946 Macrolide-Resistant; test: MIC against S. pyogenes MMX 946 Macrolide-Resistant; conditions: Streptococcus pyogenes
# [25] = test system: K. pneumoniae IHMA 658692; KPC-2; test: microbe, parasite or virus in culture; conditions: Klebsiella pneumoniae
# [26] = test system: S. pneumoniae TP 1537 (ermB + mefA); test: MIC against S. pneumoniae TP 1537 (ermB + mefA); conditions: Streptococcus pneumoniae
# [27] = test system: S. pneumoniae MMX 3031 cMefA; test: MIC against S. pneumoniae MMX 3031 cMefA; conditions: Streptococcus pneumoniae, MMX3031CMEFA
# [28] = test system: P. aeruginosa MMX Mex parent strain; test: MIC against P. aeruginosa MMX Mex parent strain; conditions: Pseudomonas aeruginosa
# [29] = test system: E. coli MMX TolC parent strain; test: MIC against E. coli MMX TolC parent strain; conditions: Escherichia coli
# [30] = test system: C. difficile BAA 1805; test: MIC against C. difficile BAA 1805; conditions: Clostridioides difficile, BAA1805; C. difficile BAA 1805; read-out: MIC
# [31] = test system: S. pneumoniae TP 1579 (ermB + tet(M, O)); test: MIC against S. pneumoniae TP 1579 (ermB + tet(M, O)); conditions: Streptococcus pneumoniae
# [32] = test system: S. aureus MMX 3035 cErmA; test: MIC against S. aureus MMX 3035 cErmA; conditions: Staphylococcus aureus, MMX3035CERMA
# [33] = test system: H. influenzae ATCC 49247; test: MIC against H. influenzae ATCC 49247; conditions: Haemophilus influenzae, ATCC49247; H. influenzae ATCC 49247; read-out: MIC
# [34] = test system: E. coli MMX 0121 ΔTolC; test: MIC against E. coli MMX 0121 ΔTolC; conditions: Escherichia coli
# [35] = test system: S. pyogenes ATCC 19615; test: MIC against S. pyogenes ATCC 19615; conditions: Streptococcus pyogenes, ATCC19615; S. pyogenes ATCC 19615; read-out: MIC
Compound,MIC ([1]; ATCC29212),MIC [2],MIC [3],MIC [4],MIC [5],MIC [7],MIC [8],MIC [9],MIC [12],MIC [13],MIC [16],MIC [17],MIC [18],MIC [19],MIC [20],MIC [22],MIC [25],MIC [31],MIC [33],MIC [35],other results
CSC1O[C@H]([C@H](NC(=O)[C@H]2NC[C@@H]3C[C@H]4OC(C)(C)O[C@H]4CO[C@H]32)[C@H](C)Cl)C(O)[C@@H](O)[C@H]1O (stereo partly drawn) [FSA-501099],> 64 µg/mL,> 64 µg/mL,> 64 µg/mL,2 µg/mL,8 µg/mL,> 64 µg/mL,> 64 µg/mL,> 64 µg/mL,> 64 µg/mL,32 µg/mL,> 64 µg/mL,,,,,,,,,,MIC [6]: > 64 µg/mL; MIC [10]: > 64 µg/mL; MIC ([11]; ATCC29213): > 64 µg/mL; MIC [14]: > 64 µg/mL; MIC [15]: > 64 µg/mL
CSC1O[C@H]([C@H](NC(=O)[C@H]2NC[C@@H]3CC=CCO[C@H]32)[C@H](C)Cl)C(O)[C@@H](O)[C@H]1O (stereo partly drawn) [FSA-24035],16 µg/mL,> 32 µg/mL,> 32 µg/mL,≤ 0.0313 µg/mL,≤ 0.06 µg/mL,> 32 µg/mL,> 64 µg/mL,0.5 µg/mL,,≤ 0.0313 µg/mL,> 32 µg/mL,> 32 µg/mL,≤ 0.0313 µg/mL,> 32 µg/mL,> 32 µg/mL,8 µg/mL,> 32 µg/mL,≤ 0.0313 µg/mL,1 µg/mL,≤ 0.0313 µg/mL,"MIC [21]: > 64 µg/mL; MIC [23]: > 64 µg/mL; MIC [24]: 16 µg/mL; MIC ([26]; S. pneumoniae TP 1537 (ermB + mefA), read-out: MIC): 32 µg/mL; MIC [27]: ≤ 0.06 µg/mL; MIC [28]: > 64 µg/mL; MIC [29]: > 64 µg/mL; MIC [30]: 2 µg/mL; MIC [32]: > 64 µg/mL; MIC [34]: 4 µg/mL"
CSC1O[C@H]([C@H](NC(=O)[C@@H]2[C@@H]3OCCCC[C@H]3CN2C)[C@H](C)Cl)C(O)[C@@H](O)[C@H]1O (stereo partly drawn) [FSA-24040],,> 32 µg/mL,> 32 µg/mL,≤ 0.0313 µg/mL,≤ 0.0313 µg/mL,> 32 µg/mL,> 32 µg/mL,,,≤ 0.0313 µg/mL,> 32 µg/mL,,≤ 0.0313 µg/mL,> 32 µg/mL,> 32 µg/mL,,> 32 µg/mL,≤ 0.0313 µg/mL,8 µg/mL,≤ 0.0313 µg/mL,"MIC [23]: > 32 µg/mL; MIC [26]: > 32 µg/mL; MIC ([10]; K. pneumoniae ATCC 10031, read-out: MIC): 8 µg/mL; MIC ([11]; ATCC29213, S. aureus ATCC 29213, read-out: MIC): ≤ 0.0313 µg/mL"
CSC1O[C@H]([C@H](NC(=O)[C@H]2NC[C@@H]3CC(F)(F)CCO[C@H]32)[C@H](C)Cl)C(O)[C@@H](O)[C@H]1O (stereo partly drawn) [FSA-24036],,> 32 µg/mL,> 32 µg/mL,≤ 0.0313 µg/mL,≤ 0.06 µg/mL,> 32 µg/mL,,,0.5 µg/mL,≤ 0.0313 µg/mL,> 32 µg/mL,> 32 µg/mL,≤ 0.0313 µg/mL,> 32 µg/mL,> 32 µg/mL,4 µg/mL,> 32 µg/mL,≤ 0.0313 µg/mL,4 µg/mL,≤ 0.0313 µg/mL,"MIC ([1]; ATCC29212, read-out: MIC): 4 µg/mL; MIC ([21]; E. faecalis MMX 847 Macrolide-Resistant (MacRes), read-out: MIC): > 64 µg/mL; MIC ([23]; E. coli ATCC 15922, read-out: MIC): > 64 µg/mL; MIC ([24]; S. pyogenes MMX 946 Macrolide-Resistant (MacRes), read-out: MIC): 4 µg/mL; MIC [26]: > 32 µg/mL; MIC [27]: ≤ 0.06 µg/mL; MIC ([8]; P. aeruginosa ATCC 27853, read-out: MIC): > 64 µg/mL; MIC ([28]; P. aeruginosa MMX Mex parent strain, read-out: MIC): > 64 µg/mL; MIC ([29]; E. coli MMX TolC parent strain, read-out: MIC): > 64 µg/mL; MIC [30]: 2 µg/mL; MIC ([32]; S. aureus MMX 3035 cErmA, read-out: MIC): > 64 µg/mL; MIC [34]: 8 µg/mL"

# From patent publication US20220073554A1, “LINCOSAMIDE ANTIBIOTICS AND USES THEREOF” (President and Fellows of Harvard College, priority 2017, published 2022)
